For series [1], the system named is Escherichia coli. Put plainly: Antibacterial activity against Escherichia coli clinical isolates by CLSI-based broth microdilution assay. Format: functional. For orientation: In broth dilution the organism is exposed to a series of concentrations in liquid medium.
Series [2] in a line: Dose normalized AUC in rat at 10 mg/kg, po measured up to 24 hrs by LC-MS/MS analysis. The conditions noted are these: in vivo. The series is classed as ADME, organism-based.
The subject of another series is Klebsiella oxytoca. As to the kind of experiment: Antibacterial activity against Klebsiella oxytoca clinical isolates by CLSI-based broth microdilution assay. The series is classed as functional.
A short description of series [3]: Clearance in mouse at 5 mg/kg, iv or po measured up to 24 hrs by LC-MS/MS analysis. Format: ADME, organism-based. The conditions noted are these: in vivo.
The subject of series [4] is Escherichia coli. As to the kind of experiment: Bacteriostatic activity against Escherichia coli ATCC 25922 infected in mouse model of neutropenic thigh infection assessed as static dose compound administered subcutaneously 2 hrs post infection and measured after 24 hrs by serial dilution method. Format: functional.
Series [5] has as its target Voltage-gated inwardly rectifying potassium channel KCNH2 (Homo sapiens, UniProt Q12809). Put plainly: Inhibition of human ERG expressed in CHOK1 cells measured for 10 mins by QPatch automated patch-clamp assay. The series is classed as cell-based, CHO-K1. (The patch-clamp technique gives a direct electrical read-out from membranes.)
A further series deals with NIH3T3. Put plainly: Phototoxicity against BALB/c mouse 3T3 cells assessed as reduction in cell viability preincubated for 1 hr followed by 5 J/cm2 UVA sunlight irradiation for 50 mins and subsequent replacement of medium and measured after 24 hrs by neutral red uptake assay. The series is classed as cell-based. The conditions noted are these: NIH3T3, light or radiation study.

Series [6] is described as follows: Protein binding in pooled human plasma at 10 uM incubated for 4 hrs under shaking condition by LC-MS/MS analysis. Format: ADME, cell-free. The note with it: read-out: PPB (converted).
The test system of the next series is MOLT-4. Put plainly: Cytotoxicity against human MOLT4 cells assessed as reduction in cell viability after 72 hrs by Cell-titer Glo assay. Format: cell-based. The conditions noted are these: MOLT-4, 72 h.
Another series relates to Pseudomonas aeruginosa. Put plainly: Antibacterial activity against Pseudomonas aeruginosa NB52023 harboring gyrA T83I mutant/ParC S87L mutant by CLSI-based broth microdilution assay. The series is classed as functional.
The next series relates to Klebsiella pneumoniae. Put plainly: Antibacterial activity against wild type Klebsiella pneumoniae ATCC 43816 by CLSI-based broth microdilution assay. Format: functional.
Series [7] is described as follows: Volume of distribution at steady state in mouse at 5 mg/kg, iv or po measured up to 24 hrs by LC-MS/MS analysis. The note with it: in vivo, read-out: Vdss. The series is classed as ADME, organism-based.

Structures are written as SMILES. Values after ≈ are worked out from the molar mass of the structure shown.

What is called MIC is the lowest concentration that inhibits growth of the organism. By MIC50 is commonly meant an inhibitory concentration at the 50% level, which refers to growth in some studies and to a panel of isolates in others. Higher therefore signals lower susceptibility. The MIC90 is the lowest concentration that inhibits either 90% of growth or 90% of the strains tested, depending on the study. As usually defined, the IC50 is the concentration at which inhibition is half-maximal. One may read the EC50 as the concentration at which the effect is half-maximal.

Chain of Voltage-gated inwardly rectifying potassium channel KCNH2 (Q12809 whole entry): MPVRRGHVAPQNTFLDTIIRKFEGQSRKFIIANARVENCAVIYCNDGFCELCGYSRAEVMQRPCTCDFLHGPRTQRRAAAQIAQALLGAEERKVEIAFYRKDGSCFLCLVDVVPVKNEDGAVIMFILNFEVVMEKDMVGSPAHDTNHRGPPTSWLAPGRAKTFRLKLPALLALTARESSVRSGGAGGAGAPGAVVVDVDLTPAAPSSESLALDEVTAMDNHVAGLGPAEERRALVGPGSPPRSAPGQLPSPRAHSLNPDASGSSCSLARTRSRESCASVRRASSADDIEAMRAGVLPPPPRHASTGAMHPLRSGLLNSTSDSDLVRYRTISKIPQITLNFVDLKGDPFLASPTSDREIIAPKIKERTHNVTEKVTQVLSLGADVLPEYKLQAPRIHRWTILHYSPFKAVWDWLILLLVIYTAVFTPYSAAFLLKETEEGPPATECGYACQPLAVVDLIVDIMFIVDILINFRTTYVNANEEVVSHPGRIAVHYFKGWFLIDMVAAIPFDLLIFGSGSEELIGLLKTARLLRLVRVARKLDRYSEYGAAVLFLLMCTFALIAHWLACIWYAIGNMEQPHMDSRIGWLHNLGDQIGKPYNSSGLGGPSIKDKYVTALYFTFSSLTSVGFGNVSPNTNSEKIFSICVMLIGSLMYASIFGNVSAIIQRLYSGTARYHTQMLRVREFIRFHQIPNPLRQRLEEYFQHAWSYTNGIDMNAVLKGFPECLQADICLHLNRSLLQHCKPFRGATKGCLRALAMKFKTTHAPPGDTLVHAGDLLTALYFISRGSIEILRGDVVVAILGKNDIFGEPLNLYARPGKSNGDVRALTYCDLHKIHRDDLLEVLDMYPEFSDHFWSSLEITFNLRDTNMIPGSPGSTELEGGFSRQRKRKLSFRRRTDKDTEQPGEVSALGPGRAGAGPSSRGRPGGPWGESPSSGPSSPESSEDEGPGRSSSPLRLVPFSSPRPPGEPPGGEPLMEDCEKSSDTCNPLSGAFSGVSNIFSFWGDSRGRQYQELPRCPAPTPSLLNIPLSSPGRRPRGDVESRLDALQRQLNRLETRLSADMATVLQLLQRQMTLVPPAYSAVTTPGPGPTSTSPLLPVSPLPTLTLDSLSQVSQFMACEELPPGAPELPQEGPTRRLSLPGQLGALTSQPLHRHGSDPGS

As for `Cc1c(N2CC3CC3(N)C2)c(F)cc2c(CN)c(F)c(=O)n(C3CC3)c12` (stereo unspecified), the MIC in the series with Escherichia coli [1] was 0.06 to 8 µg/mL (≈ 0.166 to 22.2 µM); against Klebsiella oxytoca, 0.06 to 32 µg/mL (≈ 0.166 to 88.8 µM); in the series on Pseudomonas aeruginosa, 0.5 µg/mL (≈ 1.39 µM); against Klebsiella pneumoniae, 0.125 µg/mL (≈ 0.347 µM). Also, the MIC50 against Escherichia coli [1] and in the series with Klebsiella oxytoca was 1 µg/mL (≈ 2.77 µM) throughout. In addition, the MIC90 came to 2 µg/mL (≈ 5.55 µM) with Escherichia coli [1] and 8 µg/mL (≈ 22.2 µM) in the series on Klebsiella oxytoca. In series [2], the AUC/dose turned out to be 0.1 µM·h/mg/kg. Besides, the clearance in series [3] was 50 mL/min/kg. Further, in the series on Escherichia coli [4], the Activity is given as 45.5 mg/kg/day. Besides, the IC50 in [5] was 114 µM; in the series on NIH3T3, 1.61 µM. Also, the fraction unbound at 4 h, 10 µM in series [6] is 0.65. The EC50 with MOLT-4 came to 29 µM. Besides, the Vd in [7] was 5.1 L/kg.

These data come from ChEMBL document CHEMBL4616724, “Topoisomerase Inhibitors Addressing Fluoroquinolone Resistance in Gram-Negative Bacteria” (J Med Chem, 2020).
